Experimental data from ChEMBL document CHEMBL3872258, “Challenges in the development of an M4 PAM in vivo tool compound: The discovery of VU0467154 and unexpected DMPK profiles of close analogs” (Bioorg Med Chem Lett, 2017).

Assays:
[1] = biological target: T1, Muscarinic acetylcholine receptor M4 (Rattus norvegicus, UniProt P08485); assay: Positive allosteric modulation of rat M4 receptor expressed in CHO cells co-expressing Gqui5 by calcium mobilization assay; assay type: functional, cell-based
T1 sequence (P08485 whole entry): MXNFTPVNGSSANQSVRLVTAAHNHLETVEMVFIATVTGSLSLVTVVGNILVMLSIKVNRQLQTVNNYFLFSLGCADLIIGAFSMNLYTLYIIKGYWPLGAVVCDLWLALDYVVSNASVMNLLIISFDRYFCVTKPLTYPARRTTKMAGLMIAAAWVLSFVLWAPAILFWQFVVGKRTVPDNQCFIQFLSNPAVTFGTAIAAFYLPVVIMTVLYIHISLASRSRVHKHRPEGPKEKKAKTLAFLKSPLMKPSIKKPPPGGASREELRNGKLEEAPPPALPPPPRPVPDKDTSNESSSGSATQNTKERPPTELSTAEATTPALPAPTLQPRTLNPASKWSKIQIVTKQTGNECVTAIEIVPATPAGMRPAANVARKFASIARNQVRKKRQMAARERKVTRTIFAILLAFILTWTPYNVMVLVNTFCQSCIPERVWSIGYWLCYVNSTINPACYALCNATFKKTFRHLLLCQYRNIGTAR

[2] = biological target: Muscarinic acetylcholine receptor M4 (Homo sapiens) (UniProt P08173); assay: Positive allosteric modulation of human M4 receptor expressed in CHO cells co-expressing Gqui5 by calcium mobilization assay relative to acetylcholine
[3] = biological target: T2, Muscarinic acetylcholine receptor M4 (Rattus norvegicus) (UniProt P08485); assay: Positive allosteric modulation of rat M4 receptor expressed in CHO cells co-expressing Gqui5 by calcium mobilization assay relative to acetylcholine; assay type: functional, cell-based
T2 sequence (whole entry): T1 sequence (P08485 whole entry)

[4] = Ratio of total drug level in brain to plasma in Sprague-Dawley rat at 0.20 to 0.25 mg/kg, iv administered through cassette dosing after 0.25 hrs; assay type: ADME, organism-based
[5] = Ratio of unbound concentration in brain to plasma in Sprague-Dawley rat at 0.20 to 0.25 mg/kg, iv administered through cassette dosing after 0.25 hrs; assay type: ADME, organism-based
[6] = biological target: T3, Muscarinic acetylcholine receptor M4 (Homo sapiens, UniProt P08173); assay: Positive allosteric modulation of human M4 receptor expressed in CHO cells co-expressing Gqui5 by calcium mobilization assay; assay type: functional, cell-based
T3 sequence (P08173 whole entry): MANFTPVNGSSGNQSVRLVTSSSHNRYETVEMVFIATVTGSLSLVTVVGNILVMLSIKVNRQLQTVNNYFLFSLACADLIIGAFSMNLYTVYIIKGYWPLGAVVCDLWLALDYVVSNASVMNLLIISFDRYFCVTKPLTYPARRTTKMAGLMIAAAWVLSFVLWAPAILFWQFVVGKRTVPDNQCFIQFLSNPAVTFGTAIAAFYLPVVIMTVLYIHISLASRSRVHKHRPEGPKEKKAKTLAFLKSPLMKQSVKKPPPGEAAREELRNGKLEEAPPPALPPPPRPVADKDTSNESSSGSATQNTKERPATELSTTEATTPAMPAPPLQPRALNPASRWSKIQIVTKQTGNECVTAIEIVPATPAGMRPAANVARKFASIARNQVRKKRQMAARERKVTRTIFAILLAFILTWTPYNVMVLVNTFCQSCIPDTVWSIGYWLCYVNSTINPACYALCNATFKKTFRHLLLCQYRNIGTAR

[7] = biological target: T4, Muscarinic acetylcholine receptor M4 (Homo sapiens) (UniProt P08173); assay: Positive allosteric modulation of human M4 receptor expressed in CHO cells co-expressing Gqui5 by calcium mobilization assay relative to acetylcholine; assay type: functional, cell-based
T4 sequence (whole entry): T3 sequence (P08173 whole entry)

[8] = biological target: T3, Muscarinic acetylcholine receptor M4; assay: Positive allosteric modulation of human M4 receptor
[9] = biological target: T4, Muscarinic acetylcholine receptor M4 (Homo sapiens); assay: Positive allosteric modulation of human M4 receptor relative to acetylcholine
[10] = Fraction unbound in rat; assay type: ADME
[11] = Fraction unbound in human; assay type: ADME
[12] = Ratio of total drug level in brain to plasma (unknown origin); assay type: ADME, cell-free; details: brain and plasma

| SMILES | EC50 [1] [nM] | Emax [2] [%] | Kp [4] | K(p,uu,brain) [5] | further results |
| --- | --- | --- | --- | --- | --- |
| Cc1nnc2sc(C(=O)NCc3cccc(S(C)(=O)=O)c3)c(N)c2c1C | 417 | 74.6 | – | – | – |
| Cc1nnc2sc(C(=O)NCc3ccc(S(C)(=O)=O)cc3)c(N)c2c1C | 51.3 | – | 0.04 | 0.14 | Emax [3]: 72.6%; EC50 ([6]; read-out: EC50): 363 nM; Emax [7]: 73.8% |
| Cc1nnc2sc(C(=O)NCc3ccc(S(=O)(=O)C4CC4)cc3)c(N)c2c1C | 22.4 | 67.1 | 0.05 | 0.29 | – |
| Cc1nnc2sc(C(=O)NCc3ccc(S(=O)(=O)C(F)F)c(F)c3)c(N)c2c1C | 23.4 | 76.7 | – | – | Kp ([4]; BLD = below limit of detection): Bld; K(p,uu,brain) ([5]; BLD = below limit of detection): Bld |
| Cc1nnc2sc(C(=O)NCc3ccc(S(=O)(=O)CF)cc3)c(N)c2c1C | 21.9 | 62.5 | – | – | Kp ([4]; BLD = below limit of detection): Bld; K(p,uu,brain) ([5]; BLD = below limit of detection): Bld; EC50 ([6]; read-out: pEC50 (converted)): 209 nM; Emax [7]: 62.5% |
| COc1ccc(CNC(=O)c2sc3nnc(C)c(C)c3c2N)cc1 | – | – | – | – | EC50 [8]: 150 nM; Emax [9]: 83%; fraction unbound [10]: 0.022; fraction unbound [11]: 0.035; Kp [12]: 0.28 |
| Cc1nnc2sc(C(=O)NCc3ccc(S(C)(=O)=O)c(F)c3)c(N)c2c1C | 57.7 | 69.2 | 0.51 | 2.8 | – |
| COc1ccc(CNC(=O)c2sc3nc(C)cc(C)c3c2N)cc1 | – | – | – | – | fraction unbound [10]: 0.015; fraction unbound [11]: 0.004; Kp [12]: 0.38 |
| Cc1nnc2sc(C(=O)NCc3ccc(S(=O)(=O)C(C)C)cc3)c(N)c2c1C | 47.9 | 76.8 | 0.07 | 0.67 | – |
| Cc1nnc2sc(C(=O)NCc3ccc([S+](C)[O-])cc3)c(N)c2c1C (stereo not given) | 139 | 74.2 | – | – | – |
| Cc1nnc2sc(C(=O)NCc3ccc(S(=O)(=O)C(C)(C)C)cc3)c(N)c2c1C | 44.7 | 72.1 | 0.11 | 0.34 | – |
| CSc1ccc(CNC(=O)c2sc3nnc(C)c(C)c3c2N)cc1 | 11.2 | – | 0.13 | 0.48 | Emax [3]: 75.6%; EC50 ([6]; read-out: EC50): 60.2 nM; Emax [7]: 71.9% |
